{"source": "ChEMBL document CHEMBL1201862", "about": "“PubChem BioAssay data set” (2004)", "assay_in_all_cases": "NCI-60 cell line screen, 48 h", "key": {"MDA-MB-231": {"tested_on": "MDA-MB-231"}, "MCF7": {"tested_on": "MCF7"}, "HT-29": {"tested_on": "HT-29"}, "CAKI-1": {"tested_on": "CAKI-1"}, "SF-539": {"tested_on": "SF-539"}, "SN12C": {"tested_on": "SN12C"}, "NCI-H23": {"tested_on": "NCI-H23"}, "NCI-H226": {"tested_on": "NCI-H226"}, "SF-295": {"tested_on": "SF-295"}, "HL-60": {"tested_on": "HL-60"}, "UO-31": {"tested_on": "UO-31"}, "CCRF-CEM": {"tested_on": "CCRF-CEM"}, "NCI-H460": {"tested_on": "NCI-H460"}, "UACC-62": {"tested_on": "UACC-62"}, "LXFL 529": {"tested_on": "LXFL 529"}, "HCT-15": {"tested_on": "HCT-15"}, "HCT-116": {"tested_on": "HCT-116"}, "M19-MEL": {"tested_on": "M19-MEL"}, "786-0": {"tested_on": "786-0"}, "DU-145": {"tested_on": "DU-145"}}, "note": "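Grown in 96-well plates, cells were treated for 48 hours with each compound at five concentrations. Insufficient inhibition: endpoint recorded as highest concentration tested. Abbreviation: GI50, concentration required for 50% inhibition of growth.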 The source made the active and inactive calls. Cut-off read from the data, not from the text of the source: active = GI50 up to about 1.1 µM and inactive = higher.", "data": [{"smiles": "O=[N+]([O-])c1ccc(C2=Nn3c(nnc3-c3ccc(Cl)cc3)SC2)o1", "values": [{"measurement": "GI50", "setting": "MDA-MB-231", "value": "3.24 µM (inactive)"}, {"measurement": "GI50", "setting": "MCF7", "value": "1.88 µM (inactive)"}, {"measurement": "GI50", "setting": "HT-29", "value": "3.22 µM (inactive)"}, {"measurement": "GI50", "setting": "CAKI-1", "value": "9.2 µM (inactive)"}, {"measurement": "GI50", "setting": "SF-539", "value": "8.81 µM (inactive)"}, {"measurement": "GI50", "setting": "SN12C", "value": "8.38 µM (inactive)"}, {"measurement": "GI50", "setting": "NCI-H23", "value": "7.94 µM (inactive)"}, {"measurement": "GI50", "setting": "NCI-H226", "value": "16.4 µM (inactive)"}, {"measurement": "GI50", "setting": "SF-295", "value": "10.9 µM (inactive)"}, {"measurement": "GI50", "setting": "HL-60", "value": "0.989 µM (active)"}, {"measurement": "GI50", "setting": "UO-31", "value": "3.5 µM (inactive)"}, {"measurement": "GI50", "setting": "CCRF-CEM", "value": "2.65 µM (inactive)"}, {"measurement": "GI50", "setting": "NCI-H460", "value": "6.75 µM (inactive)"}, {"measurement": "GI50", "setting": "UACC-62", "value": "11.1 µM (inactive)"}, {"measurement": "GI50", "setting": "LXFL 529", "value": "4.67 µM (inactive)"}, {"measurement": "GI50", "setting": "HCT-15", "value": 2.33, "unit": "µM"}, {"measurement": "GI50", "setting": "HCT-116", "value": "5.71 µM (inactive)"}, {"measurement": "GI50", "setting": "M19-MEL", "value": "2.78 µM (inactive)"}, {"measurement": "GI50", "setting": "786-0", "value": "10 µM (inactive)"}, {"measurement": "GI50", "setting": "DU-145", "value": "19.2 µM (inactive)"}]}]}
